# Key:
# [1] = test system: temperature-sensitive ptf1 yeast mutant (YPM2); assay: Rescue of temperature-sensitive ptf1 yeast mutant (in vivo function); type: cell-based; conditions: YPM2 cells, restrictive temperature
# Protocol: Given the essential role of the WW-domain in conferring Pin1-binding specificity in vitro, a critical question is whether this domain is important in vivo. To address this question, experiments using the PIN1 yeast homologue, ESS1/PTF1 were performed. ESS1/PTF1 is essential for cell growth and human Pin1 can carry out this essential function when transfected into yeast cells (Lu, K. P. et al., Nature 380:544 (1996); Hanes, S. D. et al., Yeast 5:55 (1989); Hani, J. et al., FEBS Lett. 365:198 (1995)). A temperature-sensitive ptf1 mutant strain, YPM2, grows at the permissive temperature (23° C.), but not at the restrictive temperature (30° C.) (Hanes, S. D. et al., Yeast 5:55 (1989); Hani, J. et al., FEBS Lett. 365:198 (1995)). This phenotype is completely rescued by a 1.5 kb PTF1 genomic fragment, which also contains the promoter and the 3′ processing sequence (FIG. 3). To insure that all human Pin1 proteins were expressed at physiological levels under normal regulation, the coding sequence of the fully functional ESS1/PTF1 gene in a Yepvector was replaced with the coding sequence of the human PIN1 (or Pin1 mutant) cDNA (FIG. 3) and transformed into a temperature-sensitive ptf1 strain. Transformants were selected on minimal media minus Leu at the permissive temperature (23° C.) and protein expression was detected by immunoblotting analysis using 12CA5 monoclonal antibody specific for the HA epitope tag inserted at the N-terminus. […] Those strains expressing similar levels of Pin1 and Pin1 mutants were grown at permissive and nonpermissive temperature.
# tau-promoted MT assembly = assay: Microtubule assembly light-scattering assay (turbidity at 350 nm); type: biochemical; conditions: 0.05 mg/ml protein, 0.05 mg/ml tau
# Protocol: The effect of Pin1 on the ability of phosphorylated tau to promote MT assembly was determined using light-scattering assays (Bramblett, G. T. et al., Neuron 10:1089-1099(1993); Alonso, A. C. et al., Proc Natl Acad Sci USA 91:5562-5566 (1994); Busciglio, J. et al., Neuron 14:879-888 (1995)). Briefly, MTs were assembled from phosphocellulose purified bovine tubulin (Cytoskeleton, Inc) and stabilized by Taxol. The nonphosphorylated or Cdc2 phosphorylated recombinant tau (0.1 mg/ml) was incubated with Pin1 (0.1 mg/ml) at 35° C. for 5 min before adding to the MTs. Bound tau was isolated by centrifugation (50,000×g) at 25° C. for 20 min, followed by immunoblotting analysis using CP27 and Pin1 antibodies. The ability of tau to promote MT assembly was determined using well established light-scattering assays. Briefly, the assembly of MTs was initiated by incubating tubulin (2 mg/ml) with or without tau (0.05 mg/ml) in 80 mM PIPES, pH 6.8, 1 mM EGTA, 1 mM MgCl2, 1 mM GTP, 20% glycerol at 35° C. for 2 min. The mixture was then transferred to a 100 μl cuvet and the rate of the MT assembly was monitored at room temperature using the turbidity increase at 350 nm. To examine the effect of Pin1, Pin1 or its mutant (0.05 mg/ml) was pre-incubated with tau or Cdc2 phosphorylated tau (0.05 mg/ml) at 35° C. for 5 min before the MT assembly assays.
# Cdc2 phosphorylated tau = assay: Binding of Cdc2 phosphorylated tau to Taxol-stabilized microtubules; type: biochemical; conditions: Pin1 0.1 mg/ml, tau 0.1 mg/ml
# Description: The high affinity interaction between Pin 1 and phosphorylated tau can affect the biological activity of tau. Upon phosphorylation by many protein kinases, including Cdc2, tau loses its ability to bind microtubules (MTs) and promote MT assembly (Bramblett, G. T. et al., Neuron 10:1089-1099 (1993); Iqbal, K. et al., FEBS Lett 349:104-108 (1994); Yoshida, H. and Ihara, Y. J Neurochem 61:1183-1186 (1993); Alonso, A. C. et al., Proc Natl Acad Sci USA 91:5562-5566 (1994); Busciglio, J. et al., Neuron 14:879-888 (1995)) although the exact mechanism is not fully understood. To determine whether Pin1 can restore the ability of phosphorylated tau to bind MTs, phosphorylated tau was produced using purified Cdc2 (Vincent, I. et al., J Cell Biol 132:413-425 (1996); Vincent, I. et al., J Neurosci 17:3588-3598 (1997)) and assessed for its ability to bind Taxol-stabilized MTs in the presence or absence of Pin1. […] Pin1 was detected in the fraction of tau-bound MTs confirming interaction between Pin1 and phosphorylated tau.
# The effect of Pin1 on the ability of phosphorylated tau to promote MT assembly was determined using light-scattering assays (Bramblett, G. T. et al., Neuron 10:1089-1099(1993); Alonso, A. C. et al., Proc Natl Acad Sci USA 91:5562-5566 (1994); Busciglio, J. et al., Neuron 14:879-888 (1995)). […]
# [2] = molecular target: […] (Cdc25 Peptide, nonphosphorylated); assay: GST-WW-domain incubated with peptide on a membrane, immunoblotting with GST antibody; type: binding
# Sequence of tau-promoted MT assembly (P10636 45-219 isoform P10636-2 limits assumed): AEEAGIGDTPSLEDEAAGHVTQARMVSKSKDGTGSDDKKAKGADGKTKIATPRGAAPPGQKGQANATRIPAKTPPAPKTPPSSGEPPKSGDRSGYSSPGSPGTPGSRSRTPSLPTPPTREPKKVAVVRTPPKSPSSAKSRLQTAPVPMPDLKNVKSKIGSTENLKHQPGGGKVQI
# Sequence of Cdc2 phosphorylated tau (P10636 45-219 isoform P10636-2 limits assumed): as above
Substance,complementation of temperature-sensitive ptf1 phenotype (in words) [1],effect on ability of Cdc2 phosphorylated tau to promote MT assembly (tau-promoted MT assembly),effect on ability of nonphosphorylated tau to promote MT assembly (tau-promoted MT assembly),restoration of binding of Cdc2 phosphorylated tau to MTs (Cdc2 phosphorylated tau),Kd (μM) Cdc25 Peptide EQPLTPVTDL [2]
Pin1: wild-type human prolyl isomerase (PPIase) Pin1 with N-terminal WW-domain; tag cleaved in Table 2,fully complemented the temperature-sensitive phenotype,restored the ability of Cdc2 phosphorylated tau to promote MT assembly,no effect,binding was restored,–
Pin1 WW-domain: N-terminal WW-domain (amino acids 1-54) of Pin1 (MADEEKLPPGWEKRMSRSSGRVYYFNHITNASQWERPSGNSSSGGKNGQGEPAR; left off: a dimerising Fc or GST),–,–,–,–,N.B.*
